{
  "source": "paper PMC11926411",
  "about": "(Cell Structure and Function, 2019)",
  "key": {"class III PI3K Vps34": {"system": "class III PI3K Vps34", "assay": "Time-lapse confocal imaging of endosomal markers after Vps34 inhibition", "conditions": "Cos-1 cells, Vps34-IN1 treatment", "text": "Cells were imaged with an IX-83 microscope (Olympus, Tokyo, Japan) equipped with a BioPoint MAC6000 filter and shutter control unit (Ludl Electronic Products, Hawthorne, NY, USA), an automated XY-stage (Chuo Precision Industrial, Tokyo, Japan), an sDISK spinning disk confocal microscope (Andor Technology, Belfast, UK), and a Rolera EM-C^2 electron multiplying cooled charge-coupled device camera (QImaging, Surrey, BC, Canada). For epifluorescence microscopy, cells were illuminated with a SOLA Light Engine (Lumencor, Beaverton, OR, USA) and the following excitation and emission filters were used: FF02-438/24 and FF01-483/32 (Semrock, Rochester, NY, USA) for CFP; BP470-490 and BP510-550 (Olympus) for FITC; FF02-438/24 and FF01-542/27 for FRET; and BP520-550 and BA580IF (Olympus) for Alexa Fluor 594 and mRFP. For spinning-disk confocal imaging, cells were illuminated with a four-line (405, 488, 561, and 633 nm) laser module (Spectral Applied Research, Hamilton, ON, Canada) and the following emission filters were used: FF01-483/32 for CFP, FF01-542/27 for FRET, and BA580IF for TagRFP. Typical exposure times for 2×2 binning were 0.3 s. […]\nTwenty-four hours after transfection, the cells were subjected to time-lapse confocal microscopy. […] P<0.0001 compared with before treatment, as calculated by repeated-measures ANOVA."}, "Ras-PI3K complex": {"system": "Ras-PI3K complex", "assay_type": "cell-based", "conditions": "Cos-1 cells, VN-H-Ras G12V, time-lapse confocal after Vps34-IN1; n=12", "protocol": "Imaging of BiFC and FRET, and their data analysis were performed essentially as described previously ([Fujioka et al., 2013]; [Ohba et al., 2003]; [Tsutsumi et al., 2009]). In brief, cells plated on a collagen-coated, 35-mm-diameter glass-base dish were transfected with expression vectors. After 24 hours, cells were serum-starved in phenol red-free DMEM/F12 (Thermo Fisher Scientific) for 4 hours and placed in a stage-top incubation chamber (Live Cell Instrument, Soul, Korea) that was maintained at 37°C. Beginning at 10 min, cells were stimulated with 100 ng/ml EGF. BiFC images were acquired using a spinning disk mode, whereas FRET images were obtained using epifluorescence mode. To represent FRET efficacy, the FRET/CFP emission ratio was calculated as the quotient of background-subtracted FRET and CFP images. To stabilize jittery image stacks of time-lapse data set, ‘Image Stabilizer’ plug-in of ImageJ (https://imagej.nih.gov/ij) was used. MetaMorph software converts image stacks of time-lapse data set into one QuickTime movie.\nVesicles positive for a BiFC signal (from Ras-PI3K complex) or TagRFP (EEA-1) were extracted with the use of the ‘Top Hat’ module of MetaMorph software, and colocalization of the Ras-PI3K complex with EEA-1 was quantified with the use of the ‘measure colocalization’ function of the software."}},
  "data": [
    {"compound": "CC(C)(O)CNc1ncc(-c2ccnc(Nc3ccnc(Cl)c3)n2)c(CC2CC2)n1", "note": "[Vps34-IN1]", "values": [
      {"measurement": "Endosomal localization of CFP-tagged Rab5", "setting": "class III PI3K Vps34", "value": "accumulated in the endosome"},
      {"measurement": "Fluorescence signal in endosomes of RFP-tagged EEA-1", "setting": "class III PI3K Vps34", "value": "dramatically dispersed"},
      {"measurement": "Amount of the Ras-PI3K complex in the endosome (BiFC)", "setting": "Ras-PI3K complex", "value": "partially, but significantly reduced"}
    ]}
  ]
}
